Patent US5380715A, “Ap4 A as a hypotensive agent” (Fujirebio Inc., priority 1992, dated 1995)
“Also recorded” adds a separate entry of the source.

Key:
rats [1] = assay: Gradual hypotension during anesthesia in rats; type: in vivo, male SD rats; conditions: rat, enflurane
Procedure: Male SD rats (Charles River Japan Inc.) were anesthetized with intravenous thiopental 50 mg/kg as a bolus, followed by 1% enflurane in air.
A femoral artery was catheterized to monitor the blood pressure and heart rate, while a femoral vein was catheterized for the administration of each of the test drugs.
(§1) The control values were obtained before the administration of each test drug. Each test drug was then administered using a syringe in a dose-dependent manner for 15 minutes. The percentage (%) of the decrease of blood pressure was determined when stabilized. Changes in heart rate (H.R.) at the administration of each test drug were measured. Furthermore,the recovery of mean blood pressure after intravenous infusion of each test drug was also determined from the decrease in heart rate and the blood pressure at a maximum dose of each test drug.

[2] = words; cited from earlier work
dogs = assay: Gradual hypotension during anesthesia in dogs (hemodynamics, blood gas); type: in vivo, mongrel dogs; conditions: dog
Procedure: Dogs were anesthetized with enflurane. […] The mean blood pressure (B.P.), heart rate (H.R.), cardiac output (C.O.), arterial oxygen tension (PaO2), mixed venos oxygen tension (PvO2), arterial carbonate tension (PaCO2), mixed venous carbonate tension (PvCO2), arterial pH (pH-a), mixed venous pH (pH-v), and base excess thereof were measured.
Mongrel dogs weighing 9 to 17 kg were anesthetized with intravenous thiopental 20 mg/kg by bolus injection, followed by 1% enflurane in 40% O2 /N2 after endotracheal intubation. […] Bilateral femoral arteries were catheterized, one for the determination of blood pressure and the other for blood sampling.
Access to the bilateral femoral veins was obtained for the administration of Ap4A, PG E1 or nitroglycerin and for the insertion of a ballon-tipped thermodilution catheter. The electrocardiogram was continuously monitored. The control values were obtained before the administration of each of the above-mentioned three agents. Each agent was administered using a syringe pump at titrated doses to produce gradual 20%, 40%, 50%, 60%, and 80% decreases in the mean arterial pressure (MAP) from the control value.
After the target blood pressure and stable hemodynamic conditions were reached, the following parameters were measured: heart rate (HR), mean pulmonary artery pressure (PAM), pulmonary capillary wedge pressure (PCWP), and central venous pressure (CVP). Cardiac output (CO) was determined by the thermodilution method. Gas analyses of arterial and mixed venous bloods were performed using a blood gas analyzer.

rats [3] = assay: Recovery of blood pressure after gradual hypotension in rats; type: in vivo, male SD rats; conditions: rat
Procedure: FIG. 1 is a graph showing the recovery of the blood pressure of rats anesthetized with enflurane with time, when each of Ap4A ( ), PG E1 ( ) and nitroglycerin ( ) was used as a test drug to attain gradual hypotension, with the blood pressure before the administration of each test drug being set 100% for reference.
The recovery of blood pressure after gradual hypotension by use of each of Ap4A, PG E1 and nitroglycerin was also tested.
as §1
In a test similar to the above, each of Ap4A, PG E1, and nitroglycerin was administered to rats, so that about 65% fall in blood pressure, about 55% fall in blood pressure, and about 35% fall in blood pressure were stepwise attained. With respect to each agent, the recovery of blood pressure was tested.

[4] = enflurane, at -20% blood pressure

O=[N+]([O-])OCC(CO[N+](=O)[O-])O[N+](=O)[O-] [nitroglycerin, reference compound]
Blood Pressure (Δ%) (rats [1]; infusion 0.03 μg/kg/min): 0% | Heart Rate (Δ%) (rats [1]; infusion 0.03 μg/kg/min): 0% | Blood Pressure (Δ%) (rats [1]; infusion 0.1 μg/kg/min): 0% | Heart Rate (Δ%) (rats [1]; infusion 0.1 μg/kg/min): 0% | Blood Pressure (Δ%) (rats [1]; infusion 0.3 μg/kg/min): -1.0 ± 1.0% | Heart Rate (Δ%) (rats [1]; infusion 0.3 μg/kg/min): -0.3 ± 0.5% | Blood Pressure (Δ%) (rats [1]; infusion 1 μg/kg/min): -7.5 ± 3.2% | Heart Rate (Δ%) (rats [1]; infusion 1 μg/kg/min): -1.5 ± 1.1% | Blood Pressure (Δ%) (rats [1]; infusion 3 μg/kg/min): -16.4 ± 4.4% | Heart Rate (Δ%) (rats [1]; infusion 3 μg/kg/min): -6.5 ± 2.3% | Blood Pressure (Δ%) (rats [1]; infusion 10 μg/kg/min): -24.7 ± 4.4% | Heart Rate (Δ%) (rats [1]; infusion 10 μg/kg/min): -13.9 ± 4.0% | Blood Pressure (Δ%) (rats [1]; infusion 30 μg/kg/min): -27.6 ± 5.2% | Heart Rate (Δ%) (rats [1]; infusion 30 μg/kg/min): -13.8 ± 4.7% | shortcomings / adverse effects [2]: congestion by the expansion of vanation, and tachycardia are caused; also recorded: sthenia of brain pressure is caused; also recorded: the arterial oxygen tension (PaO2) is decreased during hypotensive anesthesia | fall in blood pressure attainable (dogs; enflurane): ~30% | Arterial Carbonate Tension PaCO2 (dogs; [4]): 36.4 ± 1.6 mmHg | Arterial Oxygen Tension PaO2 (dogs; [4]): 229.9 ± 2.7 mmHg | Arterial pH (pH-a) (dogs; [4]): 7.315 ± 0.020 | Body Temperature BT (dogs; [4]): 38.6 ± 0.3 °C | Cardiac Output C.O. (dogs; [4]): 1.58 ± 0.21 L/min | Central Venous Pressure CVP (dogs; [4]): 2.32 ± 0.75 mmHg | Dose (dogs; [4]): 42.2 ± 2.0 µg/kg/min | Heart Rate H.R. (dogs; [4]): 191.7 ± 7.5 beats/min | Hematocrit Value Hct (dogs; [4]): 42.2 ± 2.0% | Mean Blood Pressure B.P. (mean) (dogs; [4]): 101.0 ± 1.5 | Mean Blood Pressure B.P. (Δ%) (dogs; [4]): -18.7 ± 0.9% | Mixed Venous Carbonate Tension PvCO2 (dogs; [4]): 39.6 ± 1.6 mmHg | Mixed Venous Oxygen Tension PvO2 (dogs; [4]): 46.5 ± 2.7 mmHg | Mixed Venous pH (pH-v) (dogs; [4]): 7.300 ± 0.014 | Pulmonary Artery Pressure PAM (dogs; [4]): 12.8 ± 1.0 mmHg | Pulmonary Capillary Wedge Pressure PCWP (dogs; [4]): 8.0 ± 0.6 mmHg | effect on arterial pH / venous pH (dogs; result in words): significantly decrease arterial pH or have a tendency to decrease arterial pH | effect on heart rate (dogs; result in words): tendency to increase the heart rate when a 20% fall in blood pressure is attained | effect on oxygen tension (dogs; result in words): decreases PaO2 | recovered blood pressure (before administration = 100%), plateau (rats [3]; plateau): about 85% | fall in blood pressure attained before recovery (rats [3]; stepwise): about 35% | rapidness of the recovery of blood pressure (rats [3]; order in words): Ap4A>PG E1 >nitroglycerin
